Source: PMC4890880 (ACS infectious diseases, 2016)
Where two headings read alike, the source gives them in different places.

Assays:
HepG2-A16-CD81EGFP cells = details: for IC50: read-out: Tox_IC50, HepG2 cytotoxicity
[1] = test system: Plasmodium berghei (Pb-Luc) exoerythrocytic-stage parasites; details: for IC50: read-out: PbLuc_IC50
[2] = sheet 2nd round, maximal inhibition in dose response
[3] = first series, fraction of control
[4] = second series, fraction of control
[5] = first series of columns, fraction of control
[6] = second series of columns (replicate), fraction of control
[7] = 2nd round, maximal inhibition in dose series

SMILES: C[C@@H]1CCCCO[C@H](CN(C)S(=O)(=O)c2ccc(F)cc2)[C@H](C)CN([C@@H](C)CO)C(=O)c2cc(N(C)C)ccc2O1 [BRD-K77718491-001-01-4]
- IC50 (HepG2-A16-CD81EGFP cells; sheet "2nd round"): > 10 µM
- Tox_max_inhibition (%) (HepG2-A16-CD81EGFP cells; sheet "2nd round"): 7%
- normalised signal at concentration 0.000508053 (first series) ([1]; concentration 0.000508053, first series): 0.8436
- normalised signal at concentration 0.000508053 (second series) ([1]; concentration 0.000508053, second series): 0.9419
- normalised signal at concentration 0.00152416 (first series) ([1]; concentration 0.00152416, first series): 1.131
- normalised signal at concentration 0.00152416 (second series) ([1]; concentration 0.00152416, second series): 0.8322
- normalised signal at concentration 0.00457247 (first series) ([1]; concentration 0.00457247, first series): 0.8284
- normalised signal at concentration 0.00457247 (second series) ([1]; concentration 0.00457247, second series): 0.9071
- normalised signal at concentration 0.0137174 (first series) ([1]; concentration 0.0137174, first series): 1.006
- normalised signal at concentration 0.0137174 (second series) ([1]; concentration 0.0137174, second series): 0.921
- normalised signal at concentration 0.0411523 (first series) ([1]; concentration 0.0411523, first series): 0.8082
- normalised signal at concentration 0.0411523 (second series) ([1]; concentration 0.0411523, second series): 0.9497
- normalised signal at concentration 0.123457 (first series) ([1]; concentration 0.123457, first series): 0.9873
- normalised signal at concentration 0.123457 (second series) ([1]; concentration 0.123457, second series): 0.8645
- normalised signal at concentration 0.37037 (first series) ([1]; concentration 0.37037, first series): 0.8615
- normalised signal at concentration 0.37037 (second series) ([1]; concentration 0.37037, second series): 0.9228
- normalised signal at concentration 1.11111 (first series) ([1]; concentration 1.11111, first series): 0.9968
- normalised signal at concentration 1.11111 (second series) ([1]; concentration 1.11111, second series): 0.8769
- normalised signal at concentration 3.33333 (first series) ([1]; concentration 3.33333, first series): 0.7967
- normalised signal at concentration 3.33333 (second series) ([1]; concentration 3.33333, second series): 1.06
- normalised signal at concentration 10 (first series) ([1]; concentration 10, first series of dose columns): 0.9825
- normalised signal at concentration 10 (second series) ([1]; concentration 10, second series of dose columns): 0.8275
- IC50 ([1]; sheet "2nd round", Broad compounds, dose response top concentration 10): > 10 µM
- PbLuc_max_inhibition (%) ([1]; sheet "2nd round"): 20%

SMILES: C[C@@H]1CN([C@H](C)CO)C(=O)c2cc(N(C)C)ccc2O[C@@H](C)CCCCO[C@H]1CN(C)S(=O)(=O)c1ccc(F)cc1 [BRD-K72687327-001-01-6]
- IC50 (HepG2-A16-CD81EGFP cells; sheet 2nd round): > 10 µM
- Tox_max_inhibition (%) (HepG2-A16-CD81EGFP cells; [2]): 11%
- normalized signal at concentration 10 ([1]; first series of dose-response columns, fraction of control): 0.73
- normalized signal at concentration 0.000508053 [1, 3]: 1.09
- normalized signal at concentration 0.00152416 [1, 3]: 1.10
- normalized signal at concentration 0.00457247 [1, 3]: 0.91
- normalized signal at concentration 0.0137174 [1, 3]: 1.11
- normalized signal at concentration 0.0411523 [1, 3]: 0.89
- normalized signal at concentration 0.123457 [1, 3]: 0.84
- normalized signal at concentration 0.37037 [1, 3]: 0.92
- normalized signal at concentration 1.11111 [1, 3]: 0.97
- normalized signal at concentration 3.33333 [1, 3]: 1.01
- IC50 ([1]; sheet 2nd round, Broad compounds, dose response): > 10 µM
- normalized signal at concentration 10 ([1]; second series of dose-response columns, fraction of control): 0.75
- normalized signal at concentration 0.000508053 [1, 4]: 0.96
- normalized signal at concentration 0.00152416 [1, 4]: 1.08
- normalized signal at concentration 0.00457247 [1, 4]: 0.94
- normalized signal at concentration 0.0137174 [1, 4]: 1.05
- normalized signal at concentration 0.0411523 [1, 4]: 1.15
- normalized signal at concentration 0.123457 [1, 4]: 0.88
- normalized signal at concentration 0.37037 [1, 4]: 1.15
- normalized signal at concentration 1.11111 [1, 4]: 1.02
- normalized signal at concentration 3.33333 [1, 4]: 1.11
- PbLuc_max_inhibition (%) [1, 2]: 27%

SMILES: CO[C@H]1CN(C)C(=O)c2cc(NC(=O)c3cccc(F)c3)ccc2OC[C@H](C)N(C)C[C@H]1C [BRD-K79512815-001-01-8]
- IC50 (HepG2-A16-CD81EGFP cells; sheet 2nd round): > 10 µM
- Tox_max_inhibition (%) (HepG2-A16-CD81EGFP cells; [2]): 6%
- normalized signal at concentration 0.000508053 [1, 5]: 0.92
- normalized signal at concentration 0.00152416 [1, 5]: 0.8929
- normalized signal at concentration 0.00457247 [1, 5]: 0.8757
- normalized signal at concentration 0.0137174 [1, 5]: 1.1664
- normalized signal at concentration 0.0411523 [1, 5]: 0.9194
- normalized signal at concentration 0.123457 [1, 5]: 0.814
- normalized signal at concentration 0.37037 [1, 5]: 0.9475
- normalized signal at concentration 1.11111 [1, 5]: 0.9407
- normalized signal at concentration 3.33333 [1, 5]: 0.9302
- normalized signal at concentration 10 [1, 5]: 0.6026
- IC50 ([1]; sheet 2nd round, Pb-Luc exoerythrocytic stage, 10-point dose response, top concentration 10): > 10 µM
- normalized signal at concentration 0.000508053 [1, 6]: 0.9673
- normalized signal at concentration 0.00152416 [1, 6]: 1.022
- normalized signal at concentration 0.00457247 [1, 6]: 0.9573
- normalized signal at concentration 0.0137174 [1, 6]: 0.903
- normalized signal at concentration 0.0411523 [1, 6]: 0.8874
- normalized signal at concentration 0.123457 [1, 6]: 0.788
- normalized signal at concentration 0.37037 [1, 6]: 0.9616
- normalized signal at concentration 1.11111 [1, 6]: 0.8772
- normalized signal at concentration 3.33333 [1, 6]: 0.9295
- normalized signal at concentration 10 [1, 6]: 0.8924
- PbLuc_max_inhibition (%) [1, 2]: 40%

SMILES: N#C[C@@H]1[C@H](c2ccccc2C2=CCCC2)[C@H](CO)N1C(=O)C1CCOCC1 [BRD-K53180201-001-01-6]
- Tox_max_inhibition (%) (HepG2-A16-CD81EGFP cells; [7]): 7%
- IC50 (HepG2-A16-CD81EGFP cells; 2nd round, unit inferred): > 10 µM
- PbLuc_max_inhibition (%) [1, 7]: 21%
- normalized signal at 0.000508053 (first series) ([1]; concentration 0.000508053, first replicate series, fraction of control): 1.0312
- normalized signal at 0.000508053 (second series) ([1]; concentration 0.000508053, second replicate series, fraction of control): 0.7931
- normalized signal at 0.00152416 (first series) ([1]; concentration 0.00152416, first replicate series, fraction of control): 1.021
- normalized signal at 0.00152416 (second series) ([1]; concentration 0.00152416, second replicate series, fraction of control): 0.9501
- normalized signal at 0.00457247 (first series) ([1]; concentration 0.00457247, first replicate series, fraction of control): 0.8781
- normalized signal at 0.00457247 (second series) ([1]; concentration 0.00457247, second replicate series, fraction of control): 0.9105
- normalized signal at 0.0137174 (first series) ([1]; concentration 0.0137174, first replicate series, fraction of control): 0.9372
- normalized signal at 0.0137174 (second series) ([1]; concentration 0.0137174, second replicate series, fraction of control): 0.8749
- normalized signal at 0.0411523 (first series) ([1]; concentration 0.0411523, first replicate series, fraction of control): 0.9703
- normalized signal at 0.0411523 (second series) ([1]; concentration 0.0411523, second replicate series, fraction of control): 1.2503
- normalized signal at 0.123457 (first series) ([1]; concentration 0.123457, first replicate series, fraction of control): 0.9995
- normalized signal at 0.123457 (second series) ([1]; concentration 0.123457, second replicate series, fraction of control): 1.034
- normalized signal at 0.37037 (first series) ([1]; concentration 0.37037, first replicate series, fraction of control): 0.9827
- normalized signal at 0.37037 (second series) ([1]; concentration 0.37037, second replicate series, fraction of control): 0.991
- normalized signal at 1.11111 (first series) ([1]; concentration 1.11111, first replicate series, fraction of control): 1.008
- normalized signal at 1.11111 (second series) ([1]; concentration 1.11111, second replicate series, fraction of control): 0.8686
- normalized signal at 3.33333 (first series) ([1]; concentration 3.33333, first replicate series, fraction of control): 0.9463
- normalized signal at 3.33333 (second series) ([1]; concentration 3.33333, second replicate series, fraction of control): 0.9769
- normalized signal at 10 (first series) ([1]; concentration 10, first replicate series, fraction of control): 1.181
- normalized signal at 10 (second series) ([1]; concentration 10, second replicate series, fraction of control): 1.122
- IC50 ([1]; 2nd round, Broad DOS compounds, unit not printed (dose series head 10 to 0.000508053)): > 10 µM
